Article PMC8507198 (Poultry Science, 2021)

Experiments:
chicken NPSR1 [1] = assay: pGL3-NFAT-RE-luciferase reporter assay; type: cell-based; settings: 2-APB (100 μM) added 0.5 h before cNPS20 (10 nM, 6 h); CHO cells expressing cNPSR1; P<0.01 vs. peptide treatment; Figure 4D
chicken NPSR1 [2] = assay: pGL3-CRE-luciferase reporter assay; type: cell-based; settings: H89 (10 μM) added 0.5 h before cNPS20 (10 nM, 6 h); CHO cells expressing cNPSR1; P<0.01 vs. peptide treatment; Figure 4E
chickens = settings: ref Smith et al., 2006; cited from earlier work
rats [3] = settings: administration of NPS, ref Zhang et al., 2014; cited from earlier work
rats [4] = settings: ref Smith et al., 2006; cited from earlier work
rodents = settings: central administration, cited from earlier work

With `NCCOB(c1ccccc1)c1ccccc1` [2-APB] the “Effect on cNPS20-induced NFAT-RE luciferase activity” value (chicken NPSR1 [1]) was “could block cNPS20-induced luciferase activity of CHO cells expressing cNPSR1”.

For `O=S(=O)(NCCNC/C=C/c1ccc(Br)cc1)c1cccc2cnccc12` [H89], the “Effect on cNPS20-induced CRE luciferase activity” value (chicken NPSR1 [2]) was “significantly inhibited”.

For “neuropeptide S (SFRNGVGSGIKKTSFRRAKS; printed: Ser-Phe-Arg-Asn-Gly- Val-Gly-Ser-Gly-Ile-Lys-Lys-Thr-Ser-Phe-Arg-Arg-Ala-Lys-Ser) [NPS]”, the “Hypothalamus-pituitary-adrenal axis and food intake, chickens” value (chickens) is listed as “stimulate the hypothalamus-pituitary-adrenal axis and inhibit food intake in rats and chickens”, the “Anxiolytic and antinociceptive effects” value (rats [3]) is listed as “anxiolytic, and antinociceptive effects in rats” and the “ACTH and corticosterone secretion (hypothalamic-pituitary-adrenal axis activity)” value (rats [4]) is listed as “stimulation of adrenocorticotropic hormone (ACTH) and corticosterone secretion in rats”. For the same molecule, the “Hypothalamus-pituitary-adrenal axis and food intake, rats” value (rats [4]) was “stimulate the hypothalamus-pituitary-adrenal axis and inhibit food intake in rats and chickens”, the “Length of ketamine-induced anesthesia” value (rodents; ref Kushikata et al., 2011) was “decreased the length of ketamine-induced anesthesia” and the Memory (rodents; ref Okamura et al., 2011) was “enhanced memory”. For the same molecule, the Anxiety-related effect (rodents; ref Xu et al., 2004) was “anxiolytic effects”.
